Results on three compounds are retold here after ChEMBL document CHEMBL1140459, “Synthesis of poison-frog alkaloids 233A, 235U, and 251AA and their inhibitory effects on neuronal nicotinic acetylcholine receptors” (Bioorg Med Chem Lett, 2007).

The target in assay [1] is Neuronal acetylcholine receptor; alpha4/beta2 (Homo sapiens, UniProt P17787+P43681). The assay can be described thus: Inhibition of alpha4beta2 nAchR expressed in Xenopus laevis oocytes assessed as acetylcholine-induced current by voltage-clamp method. It counts as cell-based, Oocyte.
The target of assay [2] is Neuronal acetylcholine receptor subunit alpha-7 (Homo sapiens, UniProt P36544). The assay can be described thus: Inhibition of alpha-7 nAchR expressed in Xenopus laevis oocytes assessed as acetylcholine-induced current by voltage-clamp method. It counts as functional, cell-based, Oocyte.
Chain of Neuronal acetylcholine receptor subunit alpha-7 (P36544 whole entry): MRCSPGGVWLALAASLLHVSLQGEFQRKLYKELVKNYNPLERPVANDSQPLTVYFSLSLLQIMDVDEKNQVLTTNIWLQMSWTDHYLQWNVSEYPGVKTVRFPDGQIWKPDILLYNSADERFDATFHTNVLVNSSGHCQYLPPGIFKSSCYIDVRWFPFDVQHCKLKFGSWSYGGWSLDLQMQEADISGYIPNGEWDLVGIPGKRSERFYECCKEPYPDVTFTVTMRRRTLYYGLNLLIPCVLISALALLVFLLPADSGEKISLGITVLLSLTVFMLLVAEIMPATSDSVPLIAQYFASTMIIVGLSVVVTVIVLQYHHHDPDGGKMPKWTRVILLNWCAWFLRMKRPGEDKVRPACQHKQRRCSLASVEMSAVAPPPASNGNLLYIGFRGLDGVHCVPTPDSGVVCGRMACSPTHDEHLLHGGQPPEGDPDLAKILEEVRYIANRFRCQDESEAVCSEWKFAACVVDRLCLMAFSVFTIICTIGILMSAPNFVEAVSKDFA

Chain of Neuronal acetylcholine receptor; alpha4/beta2 (P17787 whole entry): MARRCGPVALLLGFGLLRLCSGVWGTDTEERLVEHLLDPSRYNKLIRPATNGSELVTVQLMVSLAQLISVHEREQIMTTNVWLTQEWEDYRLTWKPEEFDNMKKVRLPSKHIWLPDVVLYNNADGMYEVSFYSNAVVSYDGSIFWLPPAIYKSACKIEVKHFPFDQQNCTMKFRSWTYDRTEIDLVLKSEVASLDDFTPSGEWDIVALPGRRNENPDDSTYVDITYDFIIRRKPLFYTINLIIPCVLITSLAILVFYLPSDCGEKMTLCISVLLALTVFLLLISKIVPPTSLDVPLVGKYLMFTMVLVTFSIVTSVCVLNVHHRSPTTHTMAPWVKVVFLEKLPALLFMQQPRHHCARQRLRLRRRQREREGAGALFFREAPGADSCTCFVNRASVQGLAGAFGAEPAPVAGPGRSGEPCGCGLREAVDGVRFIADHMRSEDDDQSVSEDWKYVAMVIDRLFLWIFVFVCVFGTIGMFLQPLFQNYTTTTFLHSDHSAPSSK
Chain of Neuronal acetylcholine receptor; alpha4/beta2 (P43681 whole entry): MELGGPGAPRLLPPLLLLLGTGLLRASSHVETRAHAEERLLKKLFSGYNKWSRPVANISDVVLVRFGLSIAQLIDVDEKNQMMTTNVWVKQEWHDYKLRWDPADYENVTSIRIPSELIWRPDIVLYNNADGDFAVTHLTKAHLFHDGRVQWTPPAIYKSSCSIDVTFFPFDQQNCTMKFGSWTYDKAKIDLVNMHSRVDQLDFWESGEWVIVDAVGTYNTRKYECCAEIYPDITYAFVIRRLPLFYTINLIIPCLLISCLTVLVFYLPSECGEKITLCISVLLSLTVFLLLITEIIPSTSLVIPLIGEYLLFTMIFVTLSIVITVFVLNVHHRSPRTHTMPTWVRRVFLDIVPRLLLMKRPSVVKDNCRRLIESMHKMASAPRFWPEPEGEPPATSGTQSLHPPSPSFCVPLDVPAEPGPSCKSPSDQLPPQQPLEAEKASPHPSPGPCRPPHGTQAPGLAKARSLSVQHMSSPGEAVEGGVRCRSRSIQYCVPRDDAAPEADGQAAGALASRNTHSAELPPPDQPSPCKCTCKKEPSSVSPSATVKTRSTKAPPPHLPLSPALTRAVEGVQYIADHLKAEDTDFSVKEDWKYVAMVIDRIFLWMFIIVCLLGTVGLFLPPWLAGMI

By IC50 is commonly meant the concentration at which inhibition is half-maximal. Turning to `C#CCCC[C@@H]1CC[C@@H](CC)[C@@H]2CCCCN12`, the concentration for half-maximal inhibition (IC50) in assay [1] is 5.1 µM; in assay [2], 7.4 µM.

Turning to `C=CCCC[C@@H]1CC[C@@H](CC)[C@@H]2CCCCN12`, the values for the IC50 in assay [1] and in assay [2] were 3.5 µM and 5.2 µM, respectively.

On to `CCCCCC[C@@H]1CC[C@@H](CC)[C@@H]2CCCCN12`, for which the values for the IC50 in assay [1] and in assay [2] were 2.5 µM and 4.1 µM, respectively.
